Publication PMC8665364, “Phosphoinositide regulates dynamic movement of the S4 voltage sensor in the second repeat in two-pore channel 3” (The Journal of Biological Chemistry, 2021)
Where a chain is given by its changes, count along the chain named.

Key:
[1] = target: T1, XtTPC3 (TPC3 from Xenopus tropicalis) (Xenopus tropicalis, UniProt A0A6I8S6D1, R187Q/D511C); assay: two-electrode voltage clamp, Cys-accessibility (activation rate); type: cell-based; conditions: covalent at introduced Cys511; 0.5 mM MTSES in ND-96, pH 7.4, room temperature; +135 mV pulses; PI(3,4)P2 present (after long depolarization); Xenopus oocytes
T1 construct: gene LOC100495031; full-length cDNA in pGEMHE, Xenopus laevis oocytes (cRNA); pCXN2 in HEK293T for gating charges; homodimer
T1 sequence (A0A6I8S6D1 1-779 R187Q/D511C): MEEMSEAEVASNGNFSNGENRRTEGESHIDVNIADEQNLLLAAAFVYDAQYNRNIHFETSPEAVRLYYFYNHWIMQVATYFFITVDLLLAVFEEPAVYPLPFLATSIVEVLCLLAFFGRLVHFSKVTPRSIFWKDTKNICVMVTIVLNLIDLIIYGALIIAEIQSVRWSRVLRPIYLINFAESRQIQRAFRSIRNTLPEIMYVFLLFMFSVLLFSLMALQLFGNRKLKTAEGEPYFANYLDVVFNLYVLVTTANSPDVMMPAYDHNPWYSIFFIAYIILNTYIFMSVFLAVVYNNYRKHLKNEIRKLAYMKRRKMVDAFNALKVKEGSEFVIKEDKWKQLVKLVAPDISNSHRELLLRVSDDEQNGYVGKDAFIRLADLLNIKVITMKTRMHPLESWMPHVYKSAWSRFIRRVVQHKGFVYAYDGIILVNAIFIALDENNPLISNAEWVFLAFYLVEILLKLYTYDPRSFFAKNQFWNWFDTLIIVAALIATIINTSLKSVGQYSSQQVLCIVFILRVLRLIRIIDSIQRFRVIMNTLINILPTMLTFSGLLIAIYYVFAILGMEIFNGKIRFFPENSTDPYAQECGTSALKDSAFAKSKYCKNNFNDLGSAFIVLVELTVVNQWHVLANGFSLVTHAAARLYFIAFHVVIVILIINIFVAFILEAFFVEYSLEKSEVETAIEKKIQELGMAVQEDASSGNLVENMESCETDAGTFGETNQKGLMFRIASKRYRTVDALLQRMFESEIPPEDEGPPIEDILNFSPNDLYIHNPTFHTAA

[2] = target: T2, XtTPC3 (TPC3 from Xenopus tropicalis) (Xenopus tropicalis, UniProt A0A6I8S6D1, D511C); assay: as above; type: cell-based; conditions: covalent at introduced Cys511; 0.5 mM MTSES in ND-96, pH 7.4, room temperature; +135 mV pulses; PI(3,4)P2 present (after long depolarization); Xenopus oocytes
T2 construct: gene LOC100495031; full-length cDNA in pGEMHE, Xenopus laevis oocytes (cRNA); pCXN2 in HEK293T for gating charges; homodimer
T2 sequence (A0A6I8S6D1 1-779 D511C): T1 sequence (A0A6I8S6D1 1-779 R187Q/D511C) with Q187R

SMILES: CS(=O)(=O)SCCS(=O)(=O)O [MTSES]
- MTSES-modification rate [1]: 0.011 ± 0.005 s⁻¹
- MTSES-modification rate [2]: 0.043 ± 0.014 s⁻¹
